# Source: patent US20260199223A1, “USE OF AN AUREOBASIDIUM PULLULANS EXTRACT ALONE OR IN COMBINATION WITH A C-GLYCOSIDE AS A COSMETIC ACTIVE PRINCIPLE” (L'OREAL, priority 2022, published 2026)
# Legend:
# Format in all cases: cell-based, human
# occludin = assay: Expression of occludin in NHEK, in situ immunofluorescence; conditions: 144 hours
# Method: (§1) The effects of the Aureobasidium pullulans extract and C-β-D-xylopyranoside-2-hydroxypropane (C-Xyloside, Pro-Xylane™) and a combination thereof were evaluated on normal human epidermal keratinocytes (NHEK) by analysing the expression of markers by in situ immunofluorescence labelling and image analysis: • expression of the differentiation markers: Transglutaminase K (TGK), filaggrin and involucrin, • expression of the tight junction proteins: claudin-1, zonula occludens-1 (ZO-1) and occludin,
# (§2) The compounds were tested at a non-cytotoxic concentration. • Normal human keratinocytes: NHEK, Bioalternatives reference K341 used at third passage. • Culture conditions: 37° C., 5% CO2 • Culture medium: Keratinocyte SFM (serum free medium) supplemented with Epidermal Growth Factor Pituitary extract • Test medium: Keratinocyte SFM (serum free medium)
# The keratinocytes were seeded in 96-well plates and cultured in culture medium for 24 hours. […]
# (§3) The labelling was quantified by measuring the fluorescence intensity and normalizing the fluorescence intensity relative to the total number of cells (Digital data integration with Developer Toolbox 1.5 software, GE Healthcare).
# [1] = tested on: zonula occludens-1 (ZO-1); assay: Expression of ZO-1 in NHEK, in situ immunofluorescence; conditions: 72 hours
# Method: as §1, §2
# (§4) The keratinocytes were seeded in 96-well plates and cultured in culture medium for 24 hours. The medium was then replaced with a test medium containing or not containing (control) the test compounds, the combination or the reference compound and the cells were incubated for 72 hours.
# (§5) The cells were rinsed with PBS solution, fixed and permeabilized. The cells were then labelled using a specific primary antibody (Table 13).
# (§6) Image acquisition (five photos/well) was performed using an INCell Analyzer™ 2200 (GE Healthcare, x20 objective).
# as §3
# claudin-1 [2] = assay: Expression of claudin-1 in NHEK, in situ immunofluorescence; conditions: 72 hours
# Method: as §1, §2, §4, §5, §6, §3
# involucrin [3] = assay: Expression of involucrin in NHEK, in situ immunofluorescence; conditions: 144 hours
# Method: as §1, §2
# as §4, with “incubated for 144 hours with a repeat treatment after 72 hours.” for “incubated for 72 hours.”
# as §5, §6, §3
# filaggrin [4] = assay: Expression of filaggrin in NHEK, in situ immunofluorescence; conditions: 72 hours
# Method: as §1, §2
# The keratinocytes were seeded in a 96-well plate and grown in culture medium for 192 hours with renewal of the culture medium after 24 and 96 hours. The medium was then replaced with a test medium containing or not containing (control) the test compounds, the combination or the reference compound and the cells were incubated for 72 hours.
# as §5, §6, §3
# Transglutaminase K (TGK) = assay: Expression of TGK in NHEK, in situ immunofluorescence; conditions: 72 hours
# Method: as §1, §2, §4, §5, §6, §3
# Collagen IV = assay: Expression of collagen IV in NHEK, in situ immunofluorescence; conditions: 72 hours
# Method: as §1
# The compounds were tested at a non-cytotoxic concentration. • Normal human keratinocytes: NHEK, Bioalternatives reference K341 used at third passage. • Culture conditions: 37° C., 5% CO2 • Culture medium: Keratinocyte SFM (serum free medium) supplemented with Epidermal Growth Factor Pituitary extract • Test medium: Keratinocyte SFM (serum free medium) […]
# as §3
# filaggrin [5] = assay: Filaggrin synthesis by immunohistofluorescence in reconstructed epidermis
# Method: (§7) Human keratinocytes were seeded onto inserts and then incubated at 37° C. in an atmosphere containing 5% CO2. Between the second and ninth day of incubation, the culture medium was changed every two days. […] On day 17, the reconstructed skins were then recovered and processed in different ways depending on the analysis test performed, namely: • for immunohistofluorescence analysis, the reconstructed skins were recovered, fixed, dehydrated and embedded in paraffin. 4 μm sections were then produced using a microtome (Leica). • for a QPCR test, the reconstructed skins were recovered and the RNAs were extracted in their entirety. The following primary antibodies were used for this test: • Mouse anti-filaggrin monoclonal antibody • Rabbit anti-loricrin polyclonal antibody • Mouse anti-claudin-1 monoclonal antibody The secondary antibodies used were as follows: • Alexa Fluor® 488-coupled rabbit anti-IgG antibody • Alexa Fluor® 488-coupled mouse anti-IgG antibody Visualization was performed using an IX 70 microscope (Olympus) coupled to an image analysis system (NIS-Elements software, Nikon). The content of the various markers synthesized was proportional to the intensity of the green fluorescence present on the reconstructed epidermis samples. Quantification was performed by means of an image analysis script in Python language. The results are expressed in arbitrary units (AU).
# loricrin = assay: Loricrin synthesis by immunohistofluorescence in reconstructed epidermis; conditions: day 9 to day 17, 250 μm
# Method: as §7
# claudin-1 [6] = assay: Claudin-1 synthesis by immunohistofluorescence in reconstructed epidermis
# Method: as §7
# ZO-1 = assay: Quantitative PCR analysis of ZO-1 expression in reconstructed epidermis; conditions: QPCR, 250 μm, control = 100
# Method: (§8) Human keratinocytes were seeded onto inserts and then incubated at 37° C. in an atmosphere containing 5% CO2. Between the second and ninth day of incubation, the culture medium was changed every two days. […] On day 17, the reconstructed skins were then recovered and processed in different ways depending on the analysis test performed, namely: • for immunohistofluorescence analysis, the reconstructed skins were recovered, fixed, dehydrated and embedded in paraffin. 4 μm sections were then produced using a microtome (Leica). • for a QPCR test, the reconstructed skins were recovered and the RNAs were extracted in their entirety. For this analysis, the RNAs were reverse-transcribed and the complementary DNAs obtained were analysed via a quantitative PCR technique. The mRNAs of the RPS18, GAPDH and GUSB proteins, the reference internal controls, were analysed in parallel with the mRNAs of ZO-1, CK10, involucrin and TGM1. Quantification of fluorescence incorporation (SYBR Green) was measured continuously using a LightCycler LC480 thermal cycler (Roche) and Ct analysis (relative quantification) was performed using the LC480 software (Roche).
# CK10 = assay: Quantitative PCR analysis of CK10 expression in reconstructed epidermis; conditions: QPCR, 250 μm, control = 100
# Method: as §8
# TGM1 = assay: Quantitative PCR analysis of TGM1 expression in reconstructed epidermis; conditions: QPCR, 250 μm, control = 100
# Method: as §8
# involucrin [7] = assay: Quantitative PCR analysis of involucrin expression in reconstructed epidermis; conditions: QPCR, 250 μm, control = 100
# Method: as §8
compound,measurement,setting,value
CC(O)C[C@@H]1OC[C@@H](O)[C@H](O)[C@H]1O (stereo partly drawn) [C-β-D-xylopyranoside-2-hydroxypropane],"Expression of occludin, Integration fluo",occludin; 0.3%,78 % of control
same,"Expression of ZO-1, Integration fluo",[1]; 0.03%,111 % of control
same,"Expression of ZO-1, Integration fluo",[1]; 0.1%,124 % of control
same,"Expression of ZO-1, Integration fluo",[1]; 0.3%,127 % of control
same,"Expression of Claudin-1, Integration fluo",claudin-1 [2]; 0.03%,184 % of control
same,"Expression of Claudin-1, Integration fluo",claudin-1 [2]; 0.1%,204 % of control
same,"Expression of Involucrin, Integration fluo",involucrin [3]; 0.1%,109 % of control
same,"Expression of Involucrin, Integration fluo",involucrin [3]; 0.3%,110 % of control
same,"Expression of Filaggrin, Integration fluo",filaggrin [4]; 0.1%,114 % of control
same,"Expression of Filaggrin, Integration fluo",filaggrin [4]; 0.3%,127 % of control
same,"Expression of TGK, Integration fluo",Transglutaminase K (TGK); 0.03%,124 % of control
same,"Expression of TGK, Integration fluo",Transglutaminase K (TGK); 0.1%,158 % of control
same,"Expression of TGK, Integration fluo",Transglutaminase K (TGK); 0.3%,235 % of control
same,"Expression of Collagen IV, Integration fluo",Collagen IV; 0.3%,120 % of control
[Ca+2].[Cl-].[Cl-] [CaCl2],"Expression of occludin, Integration fluo",occludin; 1.5 mM,296 % of control
same,"Expression of ZO-1, Integration fluo",[1]; 1.5 mM,119 % of control
same,"Expression of Claudin-1, Integration fluo",claudin-1 [2]; 1.5 mM,200 % of control
same,"Expression of Involucrin, Integration fluo",involucrin [3]; 1.5 mM,126 % of control
same,"Expression of Filaggrin, Integration fluo",filaggrin [4]; 1.5 mM,159 % of control
same,"Expression of TGK, Integration fluo",Transglutaminase K (TGK); 1.5 mM,903 % of control
NC(=O)c1cccnc1 [Niacinamide],"Efficacy/control (%), filaggrin",filaggrin [5]; 250 μm,+42%
same,Synthesis of filaggrin,"filaggrin [5]; day 9 to day 17, 250 μm",941 × 10^3 AU
same,Synthesis of loricin,loricrin,214 × 10^3 AU
same,"Efficacy/control (%), claudin-1",claudin-1 [6]; 250 μm,+10%
same,Synthesis of claudin-1,"claudin-1 [6]; day 9 to day 17, 250 μm",266 × 10^3 AU
same,Expression of ZO-1 (%),ZO-1,91%
same,Expression of CK10 (%),CK10,100%
same,Expression of TGMI (%),TGM1,86%
same,Expression of involucrin (%),involucrin [7],78%
"TGF-β: positive control for expression of the marker Collagen IV, R&D Systems ref. 240-B","Expression of Collagen IV, Integration fluo",Collagen IV; 10 ng/ml,176 % of control
